From patent publication US20010038824A1, “Intranasal cyclic peptide formulations” (priority 2000, published 2001)
Numbered stars: 1 amine (or outer) side, 2 acyl side, 3 side chain; on linkers, the order of the positions; unused ones are H or OH. Bridge positions count the residues as written; N and C are the ends. Square brackets hold non-standard residues; d marks the D form. Peptide text beside a SMILES is read from it. * marks the point of attachment. ξ: configuration not given here. pTerphenylCO(4''-OnC5H11) = CCCCCOc1ccc(-c2ccc(-c3ccc(C(=O)*)cc3)cc2)cc1; Orn(4R-OH,5R-OH) = O=C([C@H](C[C@@H](O)[C@@H](O)N[*:3])N[*:1])[*:2]; X9 = O=C(C[C@@H](CCc1ccc(-c2ccc(OCCCc3ccccc3)cc2)cc1)N[*:2])[*:1]; hTyr(3S-OH,4S-OH) = N[C@H](C(=O)O)[C@H](O)[C@@H](O)c1ccc(O)cc1; X5 = CC(C)CCCOc1ccc(-c2ccc(CC[C@H](CC(=O)[*:1])N[*:2])cc2)cc1; X11 = CCCCCOc1ccc(-c2ccc(CC[C@H](CC(=O)[*:1])N[*:2])cc2)cc1; X8 = CCCCCCCCCOc1ccc2cc(CC[C@H](CC(=O)[*:1])N[*:2])ccc2c1; Orn(Nα,Nα-(2-aminoethyl)2) = NCCC[C@@H](C(=O)*)N(CCN)CCN; NαBis(2-aminoethyl)dOrn = NCCC[C@H](C(=O)*)N(CCN)CCN; X6 = NCCC[C@H](N)C(=O)N(CCCN)CCCC(N[*:1])C(=O)[*:2]; Pro(3S-OH,4S-Me) = C[C@H]1CN[C@H](C(=O)O)[C@H]1O; X7 = CCCCCCCCCCCCC(C)[C@H](CC(=O)[*:1])O[*:2]; X4 = CCCCCCCCCCCCC[C@H](CC(=O)[*:1])O[*:2]; X3 = NCCCN(CCCC(N[*:1])C(=O)[*:2])[*:3]; X2 = NC(=O)CC(O)C(N[*:1])C(=O)[*:2]; ξDopa = NC(Cc1ccc(O)c(O)c1)C(=O)O; Hyp = O=C(O)[C@@H]1C[C@@H](O)CN1; X1 = O=C(C1C(O)CCN1[*:1])[*:2]; ξY = NC(Cc1ccc(O)cc1)C(=O)O; ξHyp = O=C(O)C1CC(O)CN1; ξOrn = NCCCC(N)C(=O)O; ξT = CC(O)C(N)C(=O)O; ξV = CC(C)C(N)C(=O)O; ξA = CC(N)C(=O)O

Columns and labels:
[1] = Toxicity on administration to mice for 4 weeks; assay type: in vivo; settings: 5 mg/kg and 30 mg/kg to mice for 4 weeks
[2] = test system: Candida albicans CY1002; assay: In vitro antifungal activity, broth micro-dilution; assay type: cell-based; settings: YNB medium, 1-2 days at 35° C.
Procedure: (§1) The in vitro antifungal activities of the representative Aerothricins of the present study were evaluated by determining the 50% inhibitory concentration (IC50), which was calculated as the lowest concentration of an antifungal to inhibit the growth of fungus to […] turbidity compared with the drug-free control growth spectrophotometrically.
(§2) The IC50 values were determined by the broth micro-dilution procedure based on NCCLS Approved Standard with the following minor modifications (National Committee for Clinical Laboratory Standards. (1997) Reference method for broth dilution antifungal susceptibility testing for yeasts. Approved standard. Document M27-A). Yeast Nitrogen Base (YNB; Difco Lab.) supplemented with 1% glucose and 0.25% K2HPO4 was used as testing medium for yeast, the same medium solidified with 0.2% low melting point agarose (BRL) was used for filamentous fungi. Inoculum size was 1-3×10^4 cells/ml, and incubation was performed for 1-2 days at 35° C.

[3] = test system: Fusarium solani CF1088; assay: In vitro antifungal activity, broth micro-dilution; assay type: cell-based; settings: YNB medium with 0.2% agarose, 1-2 days at 35° C.
Procedure: as §1, §2

[4] = test system: Aspegillus fumigatus CF1003; assay: In vitro antifungal activity, broth micro-dilution; assay type: cell-based; settings: YNB medium with 0.2% agarose, 1-2 days at 35° C.
Procedure: as §1, §2

[5] = Solubility
[6] = test system: Candida albicans; assay: Murine systemic candidiasis; assay type: in vivo, mice; settings: i.v., b.i.d×1 day followed by q.d.×2 days; survival on day 14
Procedure: Mice of a conventional immunocompetent mouse strain, Crj: CD-1 (ICR) were used for experimental infection models of systemic candidiasis. 4 weeks old Crj: CD-1 (ICR) mice were used for systemic candidiasis by injecting Candida albicans 5×10^6 conidia/mouse via the tail vein. Treatments were given twice (0, 4 h after infection) on the first day and once daily on following 2 days for systemic candidiasis (b.i.d×1 day followed by q.d.×2 days), intravenously (i.v.). 50% of effective dose (ED50) values was calculated from the survival number at each dose on day 14.

[7] = test system: mouse hepatocytes; assay: In vitro hepatotoxicity test; assay type: cell-based; settings: mouse hepatocyte monolayers, 1 day exposure, morphological evaluation
Source text: The mouse hepatocytes were isolated by a collagenase digestion and cultured in microtest plates. The hepatocyte monolayers were exposed to the test Aerothricins in the culture system for 1 day. After the culture period, the hepatocytes were observed under a microscope and evaluated morphologically. The degree of the morphological alteration (degeneration) of the hepatocytes by the test Aerothricins were compared with WF11243 and LY303366.

| Structure (SMILES) | acute toxicity [1] | In vitro Antifungal activity, IC50, Candida albicans CY1002 [2] [µg/mL] | In vitro Antifungal activity, IC50, Fusarium solani CF1088 [3] [µg/mL] | In vitro Antifungal activity, IC50, Aspegillus fumigatus CF1003 [4] [µg/mL] | Solubility [5] | In vivo antifungal activity against systemic candidiasis in mice, ED50 on day 14 [6] [mg/kg] | Cytotoxicity to hepatocyte [7] [µg/mL] |
| --- | --- | --- | --- | --- | --- | --- | --- |
| CCCCCCCCCCCCC(C)[C@@H]1CC(=O)NC(C(C)O)C(=O)NC(C)C(=O)NC(Cc2ccc(O)cc2)C(=O)NC(C(C)C)C(=O)N2CC(O)CC2C(=O)NC(C(C)O)C(=O)NC(C(C)O)C(=O)N2CCC(O)C2C(=O)NC(C(O)CC(N)=O)C(=O)NCC(=O)NC(C(C)O)C(=O)NC(CCCN)C(=O)O1 (stereo partly shown) [Aerothricin 1] ([ξT][ξA][ξY][ξV][ξHyp][ξT][ξT][X1][X2]G[ξT][ξOrn]; linker N-C via X7) | no acute toxicity | 0.03 | 0.21 | 0.06 | Soluble: water, methanol, dimethylsulfoxide | – | – |
| CCCCCCCCCCCCC[C@@H]1CC(=O)NC(C(C)O)C(=O)NC(C)C(=O)NC(Cc2ccc(O)c(O)c2)C(=O)NC(C(C)C)C(=O)N2CC(O)CC2C(=O)NC(C(C)O)C(=O)NC(C(C)O)C(=O)N2CCC(O)C2C(=O)NC(C(O)CC(N)=O)C(=O)NCC(=O)NC(C(C)O)C(=O)NC(CCCN)C(=O)O1 (stereo partly shown) [Aerothricin 2] ([ξT][ξA][ξDopa][ξV][ξHyp][ξT][ξT][X1][X2]G[ξT][ξOrn]; linker N-C via X4) | – | – | – | – | Soluble: water, methanol, dimethylsulfoxide | – | – |
| CCCCCCCCCCCCC[C@@H]1CC(=O)NC(C(C)O)C(=O)NC(C)C(=O)NC(Cc2ccc(OC)cc2)C(=O)NC(C(C)C)C(=O)N2CC(O)CC2C(=O)NC(C(C)O)C(=O)NC(C(C)O)C(=O)N2CCC(O)C2C(=O)NC(C(O)CC(N)=O)C(=O)NCC(=O)NC(C(C)O)C(=O)NC(CCCN)C(=O)O1 (stereo partly shown) [Aerothricin 5] ([ξT][ξA][ξY](Me)[ξV][ξHyp][ξT][ξT][X1][X2]G[ξT][ξOrn]; linker N-C via X4) | – | 0.03 | 0.19 | 0.07 | – | 0.3 | – |
| CCCCCCCCCCOc1ccc(CC[C@@H]2CC(=O)NC(C(C)O)C(=O)NC(C)C(=O)NC(Cc3ccc(O)cc3)C(=O)NC(C(C)C)C(=O)N3CC(O)CC3C(=O)NC(C(C)O)C(=O)NC(C(C)O)C(=O)N3CCC(O)C3C(=O)NC(C(O)CC(N)=O)C(=O)NCC(=O)NC(C(C)O)C(=O)NC(CCCN)C(=O)N2)cc1 (stereo partly shown) [Aerothricin 36] | – | 0.08 | 1.00 | 0.05 | – | 0.6 | – |
| CCCCCOc1ccc(-c2ccc(CC[C@@H]3CC(=O)NC(C(C)O)C(=O)NC(C)C(=O)NC(Cc4ccc(O)cc4)C(=O)NC(C(C)C)C(=O)N4CC(O)CC4C(=O)NC(C(C)O)C(=O)NC(C(C)O)C(=O)N4CCC(O)C4C(=O)NC(C(O)CC(N)=O)C(=O)NCC(=O)NC(C(C)O)C(=O)NC(CCCN)C(=O)N3)cc2)cc1 (stereo partly shown) [Aerothricin 41] ([ξT][ξA][ξY][ξV][ξHyp][ξT][ξT][X1][X2]G[ξT][ξOrn]; linker N-C via X11) | – | 0.08 | 2.40 | 0.03 | – | 0.3 | – |
| CC(C)CCCOc1ccc(-c2ccc(CC[C@@H]3CC(=O)NC(C(C)O)C(=O)NC(C)C(=O)NC(Cc4ccc(O)cc4)C(=O)NC(C(C)C)C(=O)N4CC(O)CC4C(=O)NC(C(C)O)C(=O)NC(C(C)O)C(=O)N4CCC(O)C4C(=O)NC(C(O)CC(N)=O)C(=O)NCC(=O)NC(C(C)O)C(=O)NC(CCCN)C(=O)N3)cc2)cc1 (stereo partly shown) [Aerothricin 45] ([ξT][ξA][ξY][ξV][ξHyp][ξT][ξT][X1][X2]G[ξT][ξOrn]; linker N-C via X5) | – | – | – | – | – | – | >100 |
| CC1NC(=O)C(C(C)O)NC(=O)C[C@@H](CCc2ccc(-c3ccc(OCCCc4ccccc4)cc3)cc2)NC(=O)C(CCCN)NC(=O)C(C(C)O)NC(=O)CNC(=O)C(C(O)CC(N)=O)NC(=O)C2C(O)CCN2C(=O)C(C(C)O)NC(=O)C(C(C)O)NC(=O)C2CC(O)CN2C(=O)C(C(C)C)NC(=O)C(Cc2ccc(O)cc2)NC1=O (stereo partly shown) [Aerothricin 46] ([ξT][ξA][ξY][ξV][ξHyp][ξT][ξT][X1][X2]G[ξT][ξOrn]; linker N-C via X9) | – | 0.09 | 1.80 | 0.08 | – | 0.4 | – |
| CCCCCCCCCOc1ccc2cc(CC[C@@H]3CC(=O)NC(C(C)O)C(=O)NC(C)C(=O)NC(Cc4ccc(O)cc4)C(=O)NC(C(C)C)C(=O)N4CC(O)CC4C(=O)NC(C(C)O)C(=O)NC(C(C)O)C(=O)N4CCC(O)C4C(=O)NC(C(O)CC(N)=O)C(=O)NCC(=O)NC(C(C)O)C(=O)NC(CCCN)C(=O)N3)ccc2c1 (stereo partly shown) [Aerothricin 53] ([ξT][ξA][ξY][ξV][ξHyp][ξT][ξT][X1][X2]G[ξT][ξOrn]; linker N-C via X8) | – | – | – | – | – | – | >100 |
| CCCCCCCCCCCCC[C@@H]1CC(=O)NC(C(C)O)C(=O)NC(C)C(=O)NC(Cc2ccc(O)cc2)C(=O)NC(C(C)C)C(=O)N2CC(O)CC2C(=O)NC(C(C)O)C(=O)NC(C(C)O)C(=O)N2CCC(O)C2C(=O)NC(C(O)CC(N)=O)C(=O)NCC(=O)NC(C(C)O)C(=O)NC(CCCN(CCCN)C(=O)[C@@H](N)CCCN)C(=O)O1 (stereo partly shown) [Aerothricin 132] ([ξT][ξA][ξY][ξV][ξHyp][ξT][ξT][X1][X2]G[ξT][X6]; linker N-C via X4) | – | 0.30 | 0.19 | 0.10 | – | – | >100 |
| CCCCCCCCCCCCC[C@@H]1CC(=O)NC(C(C)O)C(=O)NC(C)C(=O)NC(Cc2ccc(O)cc2)C(=O)NC(C(C)C)C(=O)N2CC(O)CC2C(=O)NC(C(C)O)C(=O)NC(C(C)O)C(=O)N2CCC(O)C2C(=O)NC(C(O)CC(N)=O)C(=O)NCC(=O)NC(C(C)O)C(=O)NC(CCCN(CCCN)C(=O)[C@H](CCCN)N(CCN)CCN)C(=O)O1 (stereo partly shown) [Aerothricin 134] ([ξT][ξA][ξY][ξV][ξHyp][ξT][ξT][X1][X2]G[ξT][X3](Orn(Nα,Nα-(2-aminoethyl)2)); linker N-C via X4) | – | – | – | – | – | – | >100 |
| CCCCCCCCCCCCC[C@@H]1CC(=O)NC(C(C)O)C(=O)NC(C)C(=O)NC(Cc2ccc(O)cc2)C(=O)NC(C(C)C)C(=O)N2CC(O)CC2C(=O)NC(C(C)O)C(=O)NC(C(C)O)C(=O)N2CCC(O)C2C(=O)NC(C(O)CC(N)=O)C(=O)NCC(=O)NC(C(C)O)C(=O)NC(CCCN(CCCN)C(=O)[C@@H](CCCN)N(CCN)CCN)C(=O)O1 (stereo partly shown) [Aerothricin 135] ([ξT][ξA][ξY][ξV][ξHyp][ξT][ξT][X1][X2]G[ξT][X3](NαBis(2-aminoethyl)dOrn); linker N-C via X4) | – | – | – | – | – | – | >100 |
| CCCCCOc1ccc(-c2ccc(-c3ccc(C(=O)N[C@H]4C[C@@H](O)[C@@H](O)NC(=O)[C@@H]5[C@@H](O)[C@@H](C)CN5C(=O)[C@H]([C@@H](C)O)NC(=O)[C@H]([C@H](O)[C@@H](O)c5ccc(O)cc5)NC(=O)[C@@H]5C[C@@H](O)CN5C(=O)[C@H]([C@@H](C)O)NC4=O)cc3)cc2)cc1 [LY303366, reference compound] ({pTerphenylCO(4''-OnC5H11)}-[Orn(4R-OH,5R-OH)]T[Hyp][hTyr(3S-OH,4S-OH)]T[Pro(3S-OH,4S-Me)]; lactam 1-C) | – | – | – | – | – | – | 10 |
